Results: patent US4175081A, “5-Substituted thiadiazole ureas” (priority 1977, dated 1979)

Experiments:
Bean (BN) [1] = assay: Post-emergence herbicide test; type: in vivo, Phaseolus vulgaris var. Black Valentine; details: Phaseolus vulgaris, post-emergence, 336 h, two weeks after treatment; for pest or weed control at 2241.7 g/ha: 2 lb/acre; for pest or weed control at 4483.4 g/ha: 4 lb/acre
Protocol: (§1) Bean (BN)--Phaseolus vulgaris var. Black Valentine
(§2) All crop and weed species were planted individually in 3' plastic pots containing potting soil. Four seeds each of corn, cotton, and snapbeans were seeded to a depth equal to the diameter of the seed. All other species were surface seeded and sprinkled with screened soil in an amount sufficient to cover the seed. Immediately after planting, all pots were watered by sub-irrigation in greenhouse trays. Pots for the pre-emergence phase were seeded one day before treatment.
(§3) Planting dates for the post-emergence phase were varied so that all seedlings would reach the desired stage of development simultaneously. The proper stage of seedling development for treatment in the post-emergence phase is as follows:
Beans: primary leaves expanded, growing point at primary leaf nodes.
(§4) Spray hood constants required to deliver the above volume are as follows:
(§5) Formulations for spray applications were prepared in 50 ml volumes with the following three components:
(§6) Formulations for the 4 lbs/acre rate were prepared by adjusting the amount of active ingredient accordingly.
(§7) Spray applications were made in a hood containing a removable belt and fixed spray nozzle. For passage through the spray hood, one pot of each specie (pre-emergence phase) was placed on the rear half of the flat. Treatments were removed to the greenhouse after spraying. Watering during the observation period was done only by sub-irrigation.
(§8) Two weeks after treatment, pre- and post-emergence injury or control was visually rated, and the results were as shown in the following tables. Pre-emergence data are provided in TABLE III and post-emergence data are provided in TABLE IV, for compounds having the formula illustrated in TABLE I. Correspondingly, pre-emergence and post-emergence data, respectively, are set forth in TABLES V AND VI, for compounds having the formula illustrated in TABLE II.

Johnson grass (JG) [2] = assay: Pre-emergence herbicide test; type: in vivo, Sorgum helepense; details: Sorghum halepense, 336 h, two weeks after treatment; for pest or weed control at 2241.7 g/ha: 2 lb/acre; for pest or weed control at 4483.4 g/ha: 4 lb/acre
Protocol: (§9) Johnson grass (JG)--Sorgum helepense
as §2
(§10) Compounds were tested at rates of application equivalent to 8 lbs. of actual compound per acre in a spray volume of 38 gallons per acre. Spray hood constants required to deliver the above volume are as follows:
as §5, §6, §7, §8

Cotton (CT) [3] = assay: Pre-emergence herbicide test; type: in vivo, Gossypium hirsutum var. DPL smooth leaf; details: Gossypium hirsutum, 336 h, two weeks after treatment; for pest or weed control at 2241.7 g/ha: 2 lb/acre; for pest or weed control at 4483.4 g/ha: 4 lb/acre
Protocol: (§11) Cotton (CT)--Gossypium hirsutum var. DPL smooth leaf
as §2, §10, §5, §6, §7, §8

Corn (CN) [4] = assay: Post-emergence herbicide test; type: in vivo; details: Zea mays, 336 h, two weeks after treatment; for pest or weed control: 2 lb/acre; for pest or weed control at 4483.4 g/ha: 4 lb/acre
Protocol: as §2, §3, §10, §5, §6, §7, §8

Corn (CN) [5] = assay: Pre-emergence herbicide test; type: in vivo; details: Zea mays, 336 h, two weeks after treatment; for pest or weed control at 2241.7 g/ha: 2 lb/acre; for pest or weed control at 4483.4 g/ha: 4 lb/acre
Protocol: as §2, §10, §5, §6, §7, §8

Turnip (TP) [6] = assay: Post-emergence herbicide test; type: in vivo, Brassica sp.; details: Brassica rapa, post-emergence, 336 h, two weeks after treatment; for pest or weed control at 2241.7 g/ha: 2 lb/acre; for pest or weed control at 4483.4 g/ha: 4 lb/acre
Protocol: (§12) Turnip (TP)--Brassica sp.
as §2, §3
Pigweed and turnips: 1 or 2 true leaves above visible cotyledons.
as §4
(§13) Formulations for spray applications were prepared in 50 ml volumes with the following three components: […]
as §7, §8

Barnyard grass (BG) [7] = assay: Post-emergence herbicide test; type: in vivo; details: Echinochloa crus-galli, 336 h, two weeks after treatment; for pest or weed control at 4483.4 g/ha: 4 lb/acre; for pest or weed control at 2241.7 g/ha: 2 lb/acre
Protocol: (§14) Barnyard grass (BG)--Echinochloa crus-galli
as §2, §3, §10, §5, §6, §7, §8

Barnyard grass (BG) [8] = assay: Pre-emergence herbicide test; type: in vivo; details: Echinochloa crus-galli, 336 h, two weeks after treatment; for pest or weed control at 2241.7 g/ha: 2 lb/acre; for pest or weed control at 4483.4 g/ha: 4 lb/acre
Protocol: as §14, §2, §10, §5, §6, §7, §8

Cotton (CT) [9] = assay: Post-emergence herbicide test; type: in vivo, Gossypium hirsutum var. DPL smooth leaf; details: Gossypium hirsutum, post-emergence, 336 h, two weeks after treatment; for pest or weed control at 2241.7 g/ha: 2 lb/acre; for pest or weed control at 4483.4 g/ha: 4 lb/acre
Protocol: as §11, §2, §3
Cotton: first true leaf 1' in length; expanded cotyledons.
as §4, §5, §6, §7, §8

Crabgrass (CG) [10] = assay: Post-emergence herbicide test; type: in vivo, Digitaria sanquinalis; details: Digitaria sanguinalis, post-emergence, 336 h, two weeks after treatment; for pest or weed control: 2 lb/acre; for pest or weed control at 4483.4 g/ha: 4 lb/acre
Protocol: (§15) Crabgrass (CG)--Digitaria sanquinalis
as §2, §3, §4, §13, §7, §8

Turnip (TP) [11] = assay: Pre-emergence herbicide test; type: in vivo, Brassica sp.; details: Brassica rapa, pre-emergence, 336 h, two weeks after treatment; for pest or weed control at 2241.7 g/ha: 2 lb/acre; for pest or weed control at 4483.4 g/ha: 4 lb/acre
Protocol: as §12, §2, §4, §13, §7, §8

Crabgrass (CG) [12] = assay: Pre-emergence herbicide test; type: in vivo, Digitaria sanquinalis; details: Digitaria sanguinalis, pre-emergence, 336 h, two weeks after treatment; for pest or weed control: 2 lb/acre; for pest or weed control at 4483.4 g/ha: 4 lb/acre
Protocol: as §15, §2, §4, §13, §7, §8

Bean (BN) [13] = assay: Pre-emergence herbicide test; type: in vivo, Phaseolus vulgaris var. Black Valentine; details: Phaseolus vulgaris, 336 h, two weeks after treatment; for pest or weed control at 2241.7 g/ha: 2 lb/acre; for pest or weed control at 4483.4 g/ha: 4 lb/acre
Protocol: as §1, §2, §10, §5, §6, §7, §8

Johnson grass (JG) [14] = assay: Post-emergence herbicide test; type: in vivo, Sorgum helepense; details: Sorghum halepense, 336 h, two weeks after treatment; for pest or weed control at 4483.4 g/ha: 4 lb/acre; for pest or weed control: 2 lb/acre
Protocol: as §9, §2, §3, §10, §5, §6, §7, §8

Structure (SMILES)	pest or weed control at 2241.7 g/ha (Bean (BN) [1])	pest or weed control at 4483.4 g/ha (Bean (BN) [1])	pest or weed control at 2241.7 g/ha (Johnson grass (JG) [2])	pest or weed control at 4483.4 g/ha (Johnson grass (JG) [2])	pest or weed control at 2241.7 g/ha (Cotton (CT) [3])	pest or weed control at 4483.4 g/ha (Cotton (CT) [3])	pest or weed control (Corn (CN) [4])	pest or weed control at 4483.4 g/ha (Corn (CN) [4])	pest or weed control at 2241.7 g/ha (Corn (CN) [5])	pest or weed control at 2241.7 g/ha (Turnip (TP) [6])	pest or weed control at 4483.4 g/ha (Turnip (TP) [6])	pest or weed control at 4483.4 g/ha (Barnyard grass (BG) [7])	pest or weed control at 2241.7 g/ha (Barnyard grass (BG) [8])	pest or weed control at 4483.4 g/ha (Barnyard grass (BG) [8])	pest or weed control at 2241.7 g/ha (Cotton (CT) [9])	pest or weed control at 4483.4 g/ha (Cotton (CT) [9])	pest or weed control (Crabgrass (CG) [10])	pest or weed control at 2241.7 g/ha (Turnip (TP) [11])	pest or weed control (Crabgrass (CG) [12])	pest or weed control at 2241.7 g/ha (Bean (BN) [13])	other results
CCCS(=O)(=O)c1nnc(NC(=O)NC)s1 [Example 62]	100%	100%	40%	40%	100%	100%	100%	50%	0%	100%	100%	80%	60%	60%	90%	100%	100%	80%	90%	60%	pest or weed control at 4483.4 g/ha (Corn (CN) [5]): 0%; pest or weed control at 4483.4 g/ha (Crabgrass (CG) [10]): 100%; pest or weed control at 4483.4 g/ha (Turnip (TP) [11]): 40%; pest or weed control at 4483.4 g/ha (Crabgrass (CG) [12]): 90%; pest or weed control at 4483.4 g/ha (Bean (BN) [13]): 50%; pest or weed control at 4483.4 g/ha (Johnson grass (JG) [14]): 100%
CCS(=O)(=O)c1nnc(NC(=O)NC)s1 [Example 81]	100%	100%	40%	40%	100%	100%	100%	50%	0%	100%	100%	80%	60%	60%	90%	100%	100%	80%	90%	60%	pest or weed control at 4483.4 g/ha (Corn (CN) [5]): 0%; pest or weed control at 4483.4 g/ha (Crabgrass (CG) [10]): 100%; pest or weed control at 4483.4 g/ha (Turnip (TP) [11]): 80%; pest or weed control at 4483.4 g/ha (Crabgrass (CG) [12]): 90%; pest or weed control at 4483.4 g/ha (Bean (BN) [13]): 60%; pest or weed control at 4483.4 g/ha (Johnson grass (JG) [14]): 100%
CNC(=O)Nc1nnc(SC(C)C)s1 [Example 40, 1-Methyl-3-[5-Isopropylthio-2-(1,3,4-Thiadiazolyl)]Urea]		100%		30%		30%		40%			100%	50%		40%		100%					pest or weed control at 4483.4 g/ha (Crabgrass (CG) [10]): 90%; pest or weed control at 4483.4 g/ha (Turnip (TP) [11]): 100%; pest or weed control at 4483.4 g/ha (Crabgrass (CG) [12]): 50%; pest or weed control at 4483.4 g/ha (Bean (BN) [13]): 10%; pest or weed control at 4483.4 g/ha (Johnson grass (JG) [14]): 70%
CNC(=O)Nc1nnc(-c2ccccc2Cl)s1 [Example 74]																					pest or weed control at 8966.8 g/ha (Bean (BN) [1]; 8 lb/acre): 80%; pest or weed control at 8966.8 g/ha (Johnson grass (JG) [2]; 8 lb/acre): 0%; pest or weed control at 8966.8 g/ha (Cotton (CT) [3]; 8 lb/acre): 100%; pest or weed control at 8966.8 g/ha (Corn (CN) [4]; 8 lb/acre): 40%; pest or weed control at 8966.8 g/ha (Corn (CN) [5]; 8 lb/acre): 0%; pest or weed control at 8966.8 g/ha (Turnip (TP) [6]; 8 lb/acre): 80%; pest or weed control at 8966.8 g/ha (Barnyard grass (BG) [7]; 8 lb/acre): 40%; pest or weed control at 8966.8 g/ha (Barnyard grass (BG) [8]; 8 lb/acre): 30%; pest or weed control at 8966.8 g/ha (Cotton (CT) [9]; 8 lb/acre): 50%; pest or weed control at 8966.8 g/ha (Crabgrass (CG) [10]; 8 lb/acre): 70%; pest or weed control at 8966.8 g/ha (Turnip (TP) [11]; 8 lb/acre): 50%; pest or weed control at 8966.8 g/ha (Crabgrass (CG) [12]; 8 lb/acre): 20%; pest or weed control at 8966.8 g/ha (Bean (BN) [13]; 8 lb/acre): 100%; pest or weed control at 8966.8 g/ha (Johnson grass (JG) [14]; 8 lb/acre): 40%
CCCSc1nnc(NC(=O)NC)s1 [Example 41, 1-Methyl-3-[5-n-Propylthio-2-(1,3,4-Thiadiazolyl)]Urea]	70%		70%		50%		100%		10%	70%			50%		100%		100%	60%	90%	30%	pest or weed control at 2241.7 g/ha (Barnyard grass (BG) [7]): 90%; pest or weed control (Johnson grass (JG) [14]): 90%
C=CCSc1nnc(NC(=O)NC)s1 [Example 39, 1-Methyl-3-[5-Allythio-2-(1,3,4-Thiadiazolyl)] Urea]	100%		30%		50%		50%		10%	80%			50%		100%		80%	70%	60%	40%	pest or weed control at 2241.7 g/ha (Barnyard grass (BG) [7]): 90%; pest or weed control (Johnson grass (JG) [14]): 80%
